This note sets out measurements from patent US20190330224A1, “ACC INHIBITORS AND USES THEREOF” (Gilead Apollo, LLC, priority 2015, published 2019).

The conditions of assay [1]: compound concentration 10 ppm, foliar spray, evaluated 7 days after inoculation.
For the next assay, the target named is Human ACC2 (Homo sapiens, UniProt O00763). Put plainly: In vitro ACC2 inhibition assay (ADP-Glo), human ACC2. Particulars: 5 nM ACC2, 20 μM ATP, 20 μM acetyl-CoA. The assay is classed as biochemical.
For the next assay, the system named is Botrtyis cinerea (Bc). Put plainly: Growth inhibition assay of fungal pathogens, Bc. In kind it is cell-based. As to conditions: read-out: Concentration at 90% Inhibition, Bc. The protocol:
(§1) Compounds of the present invention were evaluated in a growth inhibition assay to determine the ability to control the growth of fungal pathogens, such as Botrtyis cinerea (Bc). Collectotrichum graminicola (Cg), Diplodia maydis (Dm), Fusarium moniliforme (Fm), Fusarium virguliforme (Fv), Phytophthora capsici (Pc), Rhizoctonia solani (Rs), and Septoria tritici (St). Compounds to be tested were dissolved in DMSO at 2.5 mg/ml to produce compound stock solutions (“stocks”). Stocks were diluted with DMSO by a five-fold dilution in a 96-well stock plate, and two sets of final concentrations of 50, 10, and 2 ppm or 2, 0.4, and 0.08 ppm were obtained in vitro. A set of positive controls was also prepared, with various concentrations of Soraphen (2, 0.4, and 0.08 ppm), Metalaxyl (1.1, 0.22, and 0.04 ppm), and Metconazole (2, 0.4, and 0.08 ppm or 0.2, 0.04, and 0.008 ppm) after the five-fold dilutions. Negative controls on each plate included 2% DMSO, water, and a blank (media+2% DMSO). Fungal spores were isolated from previously sub-cultured plates of Botrtyis cinerea (Bc), Collectotrichum graminicola (Cg), Diplodia maydis (Dm), Fusarium moniliforme (Fm), Fusarium virguliforme (Fv), Phytophthora capsici (Pc), and Septoria tritici (St). The isolated spores were diluted to individual concentrations with a 17% V8 liquid media. For Rhizoctonia solani (Rs) and Pythium irregulare, 1.5 mm mycelial plugs were used in place of spores and ¼ Potato Dextrose Broth (PDB) was used for dilution. The spore concentrations and plug sizes were based on growth curves generated at 48 hours for each pathogen. In a second 96-well plate, the spores or mycelial plugs, media, diluted compound solutions, and controls were combined. Once the compound was added, a true final concentration of compound in each well was measured by an OD600 reading, which adjusted for any compound precipitation that might have occurred in the well. Plate readings were repeated at both 24 and 48 hours. The blank negative control was used as a background subtraction. Additional visual ratings were performed at both 24 and 48 hours for checking on precipitation and confirming efficacy. Visual and OD600 ratings of the compounds at 48 hours were compared to the 2% DMSO negative control, and the percent of pathogen growth inhibition was determined based on those values.

Assay [2] has as its system Collectotrichum graminicola (Cg). The assay is described as follows: Growth inhibition assay of fungal pathogens, Cg. In kind it is cell-based. Particulars: read-out: Concentration at 90% Inhibition, Cg. The procedure: as §1
The test system of a further assay is Diplodia maydis (Dm). The assay is described as follows: Growth inhibition assay of fungal pathogens, Dm. Particulars: Stenocarpella maydis, read-out: Concentration at 90% Inhibition, Dm. In kind it is cell-based. The procedure:
as §1

In assay [3] the test system is Fusarium moniliforme (Fm). Put plainly: Growth inhibition assay of fungal pathogens, Fm. Particulars: Fusarium verticillioides, read-out: Concentration at 90% Inhibition, Fm. The assay is classed as cell-based. The procedure:
as §1

In assay [4] the test system is Fusarium virguliforme (Fv). The assay is described as follows: Growth inhibition assay of fungal pathogens, Fv. The assay is classed as cell-based. As to conditions: read-out: Concentration at 90% Inhibition, Fv. The procedure:
as §1

The subject of assay [5] is Phytophthora capsici (Pc). The assay is described as follows: Growth inhibition assay of fungal pathogens, Pc. Particulars: read-out: Concentration at 90% Inhibition, Pc. The assay is classed as cell-based. The protocol:
as §1

In another assay the test system is Rhizoctonia solani (Rs). The assay is described as follows: Growth inhibition assay of fungal pathogens, Rs. In kind it is cell-based. Particulars: read-out: Concentration at 90% Inhibition, Rs. The protocol:
as §1

Another assay has as its system Septoria tritici (St). Put plainly: Growth inhibition assay of fungal pathogens, St. The assay is classed as cell-based. As to conditions: Zymoseptoria tritici, read-out: Concentration at 90% Inhibition, St. The procedure:
as §1

For assay [6], the system named is Blumeria graminis f sp. hordei. The assay is described as follows: Foliar protection test, barley powdery mildew control. In kind it is in vivo, Blumeria graminis f sp. hordei on Hordeum vulgare cv. Perry. As to conditions: 168 h, read-out: Barley Powdery Mildew Control at 50 ppm. The procedure:
Compounds of the present invention were evaluated in a foliar protection test to determine the ability to control barley powdery mildew. Plants (Hordeum vulgare cv. Perry) were grown for 6 days in 2-inch square pots containing Metromix 200 medium amended with fertilizer. For propagation, plants were maintained in a growth chamber at conditions of 20 to 21° C., 16 hour light cycle, 400 uM of light, 70% humidity, and with sub-irrigation as needed. After inoculation with the pathogen of Blumeria graminis f sp. hordei, plants were kept at conditions of 20 to 22° C., 70% relative humidity, and 200 uM of light to facilitate infection and disease development. At 6 days after planting (1st true leaf fully expanded), the test compounds were dissolved in a solution of 5% acetone and 0.005% Tween 80 surfactant. An atomizer was used for applying the solution onto both sides of the leaves until thoroughly wetted. The amount of the compound applied to the leaves was typically 200, 100, 50, 10, or 2 ppm, but it may vary. At 24 hours after treatment, the plants were moved to a cooler chamber and inoculated by shaking well-colonized, untreated stock plants above the treated plants. This allowed producing a settling cloud of spores and resulting in uniform infection. Efficacy was evaluated in 7 days later by examining leaves for colonization and growth of mildew. Table 5 lists the results of barley powdery mildew control at a compound concentration of 50 ppm or 10 ppm. Compounds having an activity designated as “AA” provided a compound having >85% control of barley powdery mildew; compounds having an activity designated as “A” provided a compound having from 70% to 84% control of barley powdery mildew; compounds having an activity designated as “B” provided a compound having from 50 to 69% control of barley powdery mildew; compounds having an activity designated as “C” provided a compound having from 25 to 49% control of barley powdery mildew; and compounds having an activity designated as “D” provided a compound having <25% control of barley powdery mildew.

For the next assay, the target named is Fungal ACC2 (UniProt Q00955). Particulars: read-out: Fungal ACC2 (IC50, in vitro ACC2 inhibition).
Another assay concerns C. albicans ATCC 90028. Put plainly: Anti-Fungal Activity Assay (broth microtiter MIC), C. albicans. In kind it is cell-based, Candida albicans. As to conditions: Candida albicans, ATCC90028, 48 h, 3 replicates; MIC recorded at 48 h; read-out: MIC C. albicans ATCC 90028. The essentials: (§2)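 MIC taken as visual growth inhibition versus the growth control, mostly at 48 h (soraphen also at 24 h). Following CLSI M27-A3, colonies grown overnight at 35° C on Sabouraud dextrose agar were suspended in RPMI 1640+MOPS; test agents came from 1 mg/mL DMSO stocks.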

Another assay concerns C. krusei ATCC 6258. The assay is described as follows: Anti-Fungal Activity Assay (broth microtiter MIC), C. krusei. The assay is classed as cell-based, Candida krusei. Particulars: Pichia kudriavzevii, ATCC6258, 48 h, 3 replicates; MIC recorded at 48 h; read-out: MIC C. krusei ATCC 6258. The essentials: as §2
The subject of assay [7] is C. parapsilosis ATCC 22019. Put plainly: Anti-Fungal Activity Assay (broth microtiter MIC), C. parapsilosis. The assay is classed as cell-based, Candida parapsilosis. As to conditions: Lodderomyces parapsilosis, ATCC22019, 48 h, 3 replicates; MIC recorded at 48 h; read-out: MIC C. parapsilosis ATCC 22019. The essentials:
as §2

The mark [8] stands for this setting: compound concentration 50 ppm, foliar spray, evaluated 7 days after inoculation.

Broadly, the IC50 is the concentration needed to halve the response being measured. Broadly, the MIC is the lowest concentration that inhibits growth of the organism.

SMILES strings stand for the structures. Converted amounts (≈) assume the structure as drawn. Where two headings read alike, the source gives them in different places.

Chain of Human ACC2 (O00763 whole entry): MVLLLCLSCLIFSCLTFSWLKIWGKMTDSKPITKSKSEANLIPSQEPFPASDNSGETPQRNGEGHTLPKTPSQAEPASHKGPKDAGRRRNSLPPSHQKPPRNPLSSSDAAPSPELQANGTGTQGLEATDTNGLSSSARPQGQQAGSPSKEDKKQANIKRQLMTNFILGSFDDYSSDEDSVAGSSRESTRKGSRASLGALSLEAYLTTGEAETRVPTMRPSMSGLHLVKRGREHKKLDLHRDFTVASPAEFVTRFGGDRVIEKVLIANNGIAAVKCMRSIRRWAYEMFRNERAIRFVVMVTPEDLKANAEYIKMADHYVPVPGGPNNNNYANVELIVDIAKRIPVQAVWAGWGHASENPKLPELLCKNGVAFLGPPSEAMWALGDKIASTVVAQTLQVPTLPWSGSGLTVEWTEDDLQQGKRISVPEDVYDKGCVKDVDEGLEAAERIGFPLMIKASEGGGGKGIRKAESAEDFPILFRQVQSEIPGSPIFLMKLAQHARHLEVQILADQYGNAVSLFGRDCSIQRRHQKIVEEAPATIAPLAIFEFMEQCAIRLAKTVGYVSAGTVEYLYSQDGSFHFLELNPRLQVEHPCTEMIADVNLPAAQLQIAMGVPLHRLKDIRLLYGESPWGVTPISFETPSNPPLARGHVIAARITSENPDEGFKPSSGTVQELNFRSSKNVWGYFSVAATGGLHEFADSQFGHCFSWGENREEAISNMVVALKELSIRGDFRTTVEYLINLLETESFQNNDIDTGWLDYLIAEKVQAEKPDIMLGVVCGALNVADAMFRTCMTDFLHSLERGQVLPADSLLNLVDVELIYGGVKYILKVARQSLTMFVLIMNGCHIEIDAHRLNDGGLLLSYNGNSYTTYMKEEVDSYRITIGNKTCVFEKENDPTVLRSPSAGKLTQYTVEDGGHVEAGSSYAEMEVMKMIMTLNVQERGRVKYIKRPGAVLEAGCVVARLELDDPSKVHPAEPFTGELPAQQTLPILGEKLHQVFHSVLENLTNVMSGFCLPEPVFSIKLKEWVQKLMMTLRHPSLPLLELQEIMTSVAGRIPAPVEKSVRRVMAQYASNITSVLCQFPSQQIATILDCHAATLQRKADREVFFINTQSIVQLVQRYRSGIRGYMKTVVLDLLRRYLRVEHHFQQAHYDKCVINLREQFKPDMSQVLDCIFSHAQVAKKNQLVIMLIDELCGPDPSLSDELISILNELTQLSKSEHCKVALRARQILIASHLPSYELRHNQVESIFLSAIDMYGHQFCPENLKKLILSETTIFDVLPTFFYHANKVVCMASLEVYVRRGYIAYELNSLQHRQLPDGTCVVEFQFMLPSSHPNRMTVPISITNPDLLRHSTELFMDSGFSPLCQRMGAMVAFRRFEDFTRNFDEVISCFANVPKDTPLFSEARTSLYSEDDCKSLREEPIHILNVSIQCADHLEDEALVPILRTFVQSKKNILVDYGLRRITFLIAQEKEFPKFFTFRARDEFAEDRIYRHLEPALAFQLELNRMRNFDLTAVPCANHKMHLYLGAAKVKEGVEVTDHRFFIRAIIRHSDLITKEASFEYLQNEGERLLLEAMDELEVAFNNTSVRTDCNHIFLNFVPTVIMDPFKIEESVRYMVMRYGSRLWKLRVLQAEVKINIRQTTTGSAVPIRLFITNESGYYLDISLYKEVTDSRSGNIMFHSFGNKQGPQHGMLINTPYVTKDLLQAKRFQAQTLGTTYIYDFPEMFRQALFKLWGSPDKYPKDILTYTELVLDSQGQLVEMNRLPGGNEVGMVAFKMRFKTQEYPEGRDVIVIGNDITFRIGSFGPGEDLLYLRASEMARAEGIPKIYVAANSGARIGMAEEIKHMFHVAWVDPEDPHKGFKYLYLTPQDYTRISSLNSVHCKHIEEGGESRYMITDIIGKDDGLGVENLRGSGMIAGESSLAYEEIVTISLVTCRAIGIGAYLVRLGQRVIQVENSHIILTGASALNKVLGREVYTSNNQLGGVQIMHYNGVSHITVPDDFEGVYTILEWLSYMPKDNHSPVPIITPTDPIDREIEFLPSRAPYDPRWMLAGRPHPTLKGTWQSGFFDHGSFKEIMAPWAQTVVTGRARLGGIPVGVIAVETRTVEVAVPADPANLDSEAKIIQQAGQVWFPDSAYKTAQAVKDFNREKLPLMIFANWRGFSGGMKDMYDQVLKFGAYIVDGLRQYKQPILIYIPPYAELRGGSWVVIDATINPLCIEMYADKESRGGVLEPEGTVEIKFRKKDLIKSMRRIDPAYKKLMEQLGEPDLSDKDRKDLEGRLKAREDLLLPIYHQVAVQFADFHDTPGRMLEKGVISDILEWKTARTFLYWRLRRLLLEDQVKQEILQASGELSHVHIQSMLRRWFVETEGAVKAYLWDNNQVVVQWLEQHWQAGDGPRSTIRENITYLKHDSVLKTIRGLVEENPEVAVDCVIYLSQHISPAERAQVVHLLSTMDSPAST
Chain of Fungal ACC2 (Q00955 whole entry): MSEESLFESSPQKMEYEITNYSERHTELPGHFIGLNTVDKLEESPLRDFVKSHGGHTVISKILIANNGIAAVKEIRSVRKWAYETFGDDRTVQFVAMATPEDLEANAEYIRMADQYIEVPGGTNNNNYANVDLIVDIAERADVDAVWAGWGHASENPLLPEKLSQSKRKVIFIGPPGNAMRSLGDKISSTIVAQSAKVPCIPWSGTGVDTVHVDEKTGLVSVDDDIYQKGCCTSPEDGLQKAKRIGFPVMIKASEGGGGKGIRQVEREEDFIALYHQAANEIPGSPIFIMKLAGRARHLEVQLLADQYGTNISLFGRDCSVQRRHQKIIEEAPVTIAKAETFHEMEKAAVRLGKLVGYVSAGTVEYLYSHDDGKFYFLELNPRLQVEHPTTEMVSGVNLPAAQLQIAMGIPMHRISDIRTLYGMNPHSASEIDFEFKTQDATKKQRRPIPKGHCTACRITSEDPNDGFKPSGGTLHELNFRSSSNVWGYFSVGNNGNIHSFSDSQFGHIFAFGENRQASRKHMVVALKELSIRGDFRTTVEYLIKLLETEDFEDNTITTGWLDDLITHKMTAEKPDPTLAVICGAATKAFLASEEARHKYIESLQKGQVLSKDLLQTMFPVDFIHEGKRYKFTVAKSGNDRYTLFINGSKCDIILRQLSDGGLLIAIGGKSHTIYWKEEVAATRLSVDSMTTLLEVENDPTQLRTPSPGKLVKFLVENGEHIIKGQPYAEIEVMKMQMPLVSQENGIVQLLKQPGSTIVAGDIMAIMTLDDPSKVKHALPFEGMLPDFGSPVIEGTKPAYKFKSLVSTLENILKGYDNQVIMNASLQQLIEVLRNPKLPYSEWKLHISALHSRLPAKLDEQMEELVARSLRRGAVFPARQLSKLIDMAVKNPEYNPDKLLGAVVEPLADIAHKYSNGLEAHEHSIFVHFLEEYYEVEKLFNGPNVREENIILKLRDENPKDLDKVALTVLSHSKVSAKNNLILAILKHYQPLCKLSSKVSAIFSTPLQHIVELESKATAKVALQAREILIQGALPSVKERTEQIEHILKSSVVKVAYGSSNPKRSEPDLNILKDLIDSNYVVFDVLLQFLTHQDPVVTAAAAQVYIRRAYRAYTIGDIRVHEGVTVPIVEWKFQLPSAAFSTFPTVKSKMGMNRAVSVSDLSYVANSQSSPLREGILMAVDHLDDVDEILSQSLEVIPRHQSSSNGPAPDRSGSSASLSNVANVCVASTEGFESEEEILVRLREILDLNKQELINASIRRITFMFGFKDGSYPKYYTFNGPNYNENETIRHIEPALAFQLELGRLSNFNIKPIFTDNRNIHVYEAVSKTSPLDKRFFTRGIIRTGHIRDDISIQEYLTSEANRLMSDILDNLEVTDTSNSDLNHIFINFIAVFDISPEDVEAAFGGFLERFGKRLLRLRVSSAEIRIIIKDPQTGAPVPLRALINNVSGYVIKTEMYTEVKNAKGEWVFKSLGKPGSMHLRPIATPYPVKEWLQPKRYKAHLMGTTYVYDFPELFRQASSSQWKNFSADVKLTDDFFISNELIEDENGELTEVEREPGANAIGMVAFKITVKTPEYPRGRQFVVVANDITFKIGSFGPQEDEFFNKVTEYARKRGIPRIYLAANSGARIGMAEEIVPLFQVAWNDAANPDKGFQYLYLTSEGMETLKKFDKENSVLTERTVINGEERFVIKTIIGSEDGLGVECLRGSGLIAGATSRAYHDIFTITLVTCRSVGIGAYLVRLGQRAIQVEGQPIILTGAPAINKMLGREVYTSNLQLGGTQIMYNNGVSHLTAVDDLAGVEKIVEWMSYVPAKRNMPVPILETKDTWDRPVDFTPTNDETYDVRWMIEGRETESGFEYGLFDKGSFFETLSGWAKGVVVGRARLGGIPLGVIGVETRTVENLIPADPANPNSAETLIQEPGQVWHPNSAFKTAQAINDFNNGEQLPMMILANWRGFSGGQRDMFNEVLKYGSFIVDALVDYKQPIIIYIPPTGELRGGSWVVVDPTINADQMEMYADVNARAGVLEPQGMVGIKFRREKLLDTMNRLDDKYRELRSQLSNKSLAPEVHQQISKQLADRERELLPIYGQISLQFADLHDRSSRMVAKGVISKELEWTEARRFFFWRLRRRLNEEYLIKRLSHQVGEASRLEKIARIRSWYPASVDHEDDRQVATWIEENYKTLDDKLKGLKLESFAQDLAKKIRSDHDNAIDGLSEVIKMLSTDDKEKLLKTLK

Regarding `COCCO[C@@H](Cn1c(=O)n([C@H]2CCNC2=O)c(=O)c2c(C)c(-n3nccn3)sc21)c1cc(F)ccc1OC` [Compound I-25, 1-((R)-2-(5-fluoro-2-methoxyphenyl)-2-(2-methoxy-ethoxy)ethyl)-5-methyl-3-((S)-2-oxopyrrolidin-3-yl)-6-(2H-1,2,3-triazol-2-yl)thieno[2,3-d]pyrimidine-2,4(1H,3H)-dione], in assay [1], the “Barley Powdery Mildew Control at 10 ppm” value was “D (provided a compound having <25% control of barley powdery mildew)”. The IC50 against Human ACC2 fell in the range of 10 to 100 nM; on Fungal ACC2, 2 to 10 nM. In addition, the IC90 with Botrtyis cinerea (Bc) (48 h) is more than 50 µg/mL; in [2] (48 h) it was more than 50 µg/mL; in the assay on Diplodia maydis (Dm) (48 h), more than 50 µg/mL; in assay [3] (48 h), 10 µg/mL (≈ 17.9 µM); in assay [4] (48 h), more than 50 µg/mL; in assay [5] (48 h) it was more than 50 µg/mL. The IC90 in the assay on Rhizoctonia solani (Rs) (48 h) and in the assay on Septoria tritici (St) (48 h) was more than 50 µg/mL each time. Also, the pest or weed control at 50 ppm in assay [6] (foliar) was in the range of 50 to 69%.
Take `COCCO[C@@H](Cn1c(=O)n([C@@H]2CCNC2=O)c(=O)c2c(C)c(-n3nccn3)sc21)c1cc(F)ccc1OC` [Compound I-26, 1-((R)-2-(5-fluoro-2-methoxyphenyl)-2-(2-methoxy-ethoxy)ethyl)-5-methyl-3-((R)-2-oxopyrrolidin-3-yl)-6-(2H-1,2,3-triazol-2-yl)thieno[2,3-d]pyrimidine-2,4(1H,3H)-dione]: the “Barley Powdery Mildew Control at 10 ppm” value in assay [1] is recorded as “D (provided a compound having <25% control of barley powdery mildew)”. In addition, the IC50 on Human ACC2 is 2 to 10 nM; at Fungal ACC2, 0.7 to 2 nM. Further, the IC90 in the assay with Botrtyis cinerea (Bc) (48 h) was 10 µg/mL (≈ 17.9 µM); in assay [2] (48 h), more than 50 µg/mL; in the assay on Diplodia maydis (Dm) (48 h) it was more than 50 µg/mL; in assay [3] (48 h), 2 µg/mL (≈ 3.58 µM); in assay [4] (48 h), 10 µg/mL (≈ 17.9 µM); in assay [5] (48 h) it was more than 50 µg/mL. For the same compound, the IC90 with Rhizoctonia solani (Rs) (48 h) and with Septoria tritici (St) (48 h) was more than 50 µg/mL in each case. The pest or weed control at 50 ppm in assay [6] (foliar) was in the range of 70 to 84%.
Regarding `COc1ccc(F)cc1[C@H](Cn1c(=O)n([C@H]2CCN(C(C)C)C2=O)c(=O)c2c(C)c(-n3nccn3)sc21)OCCO` [Compound I-84, 1-((R)-2-(5-fluoro-2-methoxyphenyl)-2-(2-hydroxy-ethoxy)ethyl)-3-((S)-1-isopropyl-2-oxopyrrolidin-3-yl)-5-methyl-6-(2H-1,2,3-triazol-2-yl)thieno[2,3-d]pyrimidine-2.4(1H,3H)-dione], the “Barley Powdery Mildew Control at 10 ppm” value in assay [1] is “D (provided a compound having <25% control of barley powdery mildew)”. The compound further yielded a half-inhibitory concentration (IC50) at Human ACC2 of 2 to 10 nM. Moreover, the minimal inhibitory concentration (MIC) (in the assay with C. albicans ATCC 90028; in the assay on C. krusei ATCC 6258; in [7]) was 2.1 to 4 µg/mL (≈ 3.58 to 6.82 µM) each time. Further, the IC90 in the assay with Botrtyis cinerea (Bc) (48 hours) was 2 µg/mL (≈ 3.41 µM); in [2] (48 hours) it was 2 µg/mL (≈ 3.41 µM); in the assay with Diplodia maydis (Dm) (48 hours), 10 µg/mL (≈ 17 µM); in [3] (48 hours) it was 2 µg/mL (≈ 3.41 µM); in [4] (48 hours) it was 2 µg/mL (≈ 3.41 µM); in assay [5] (48 hours) it was more than 50 µg/mL. For the same compound, the IC90 in the assay with Rhizoctonia solani (Rs) (48 hours) is 2 µg/mL (≈ 3.41 µM); in the assay with Septoria tritici (St) (48 hours), more than 50 µg/mL. In addition, the pest or weed control at 50 ppm in assay [6] (setting [8]) was 50 to 69%.
On to `COc1ccc(F)cc1[C@H](Cn1c(=O)n([C@@H]2CCN(C(C)C)C2=O)c(=O)c2c(C)c(-n3nccn3)sc21)OCCO` [Compound I-85, 1-((R)-2-(5-fluoro-2-methoxyphenyl)-2-(2-hydroxy-ethoxy)ethyl)-3-((S)-1-isopropyl-2-oxopyrrolidin-3-yl)-5-methyl-6-(2H-1,2,3-triazol-2-1)thieno[2,3-d]pyrimidine-2,4(1H,3H)-dione], for which, in [1], the “Barley Powdery Mildew Control at 10 ppm” value is reported as “C (provided a compound having from 25 to 49% control of barley powdery mildew)”. At Human ACC2, this compound gave an IC50 of 10 to 100 nM. Moreover, the MIC (with C. albicans ATCC 90028; in the assay on C. krusei ATCC 6258; in assay [7]) was 2.1 to 4 µg/mL (≈ 3.58 to 6.82 µM) throughout. Further, the IC90 with Botrtyis cinerea (Bc) (48 hours) was 2 µg/mL (≈ 3.41 µM); in [2] (48 hours), 2 µg/mL (≈ 3.41 µM); in the assay with Diplodia maydis (Dm) (48 hours), 2 µg/mL (≈ 3.41 µM); in assay [3] (48 hours) it was 2 µg/mL (≈ 3.41 µM); in [4] (48 hours), 2 µg/mL (≈ 3.41 µM); in [5] (48 hours), more than 50 µg/mL. For the same compound, the IC90 with Rhizoctonia solani (Rs) (48 hours) was 2 µg/mL (≈ 3.41 µM); with Septoria tritici (St) (48 hours) it was more than 50 µg/mL. The pest or weed control at 50 ppm in assay [6] (setting [8]) is 70 to 84%.
